From patent US8829007B2 (priority 2009, dated 2014)
Like-named read-outs stand apart in the source and are kept apart here.

Key:
[1] = test system: influenza A virus (A/PR/8/34); experiment: microbe, parasite or virus in culture; format: cell-based
[2] = test system: A/PR/8/34 influenza virus; experiment: microbe, parasite or virus in culture; format: cell-based
[3] = mean all, MDCK cells infected with A/PR/8/34, cell protection (CPE), read-out: IC50
[4] = mean all, bDNA viral RNA in MDCK cells infected with A/PR/8/34, read-out: EC50
[5] = Influenza A virus, PR/8, MDCK, mean all, MDCK cells infected with A/PR/8/34, cell protection (CPE), read-out: IC50
[6] = Influenza A virus, PR/8, MDCK, mean all, bDNA viral RNA in MDCK cells infected with A/PR/8/34, read-out: EC50
[7] = Influenza A virus, PR/8, MDCK, mean all, A/PR/8/34 infected MDCK cells, cell protection (CPE), read-out: IC50
[8] = Influenza A virus, PR/8, mean all, A/PR/8/34 influenza virus replication, bDNA, read-out: EC50
[9] = mean all, A/PR/8/34 influenza virus replication, bDNA, read-out: EC50
[10] = Influenza A virus, PR/8, MDCK, mean all, survival of A/PR/8/34 infected MDCK cells (CPE assay), read-out: IC50
[11] = Influenza A virus, PR/8, mean all, replication of A/PR/8/34 influenza virus (bDNA assay), read-out: EC50
[12] = Influenza A virus, PR/8, MDCK, MDCK cells, A/PR/8/34, ATP readout, mean all, read-out: Cell Flu, MDCK protection, ATP (All: IC50: uM)(Mean (All))
[13] = Influenza A virus, PR/8, 30 h, HA(−) 30 hr, A/PR/8, bDNA, mean all, read-out: Cell Influenza HA(−) 30 hr A/PR/8 bDNA:bDNA EC50 uM(Mean (All))

Row | Compound | IC50 [1, 3] [µM] | EC50 [2, 4] [µM] | also measured
1 | CC(C)(C)c1nc(-c2c[nH]c3ncc(Cl)cc23)nc(NC2CCCCC2(C)C(=O)O)c1F (centres unmarked) [Compound 691] | < 5 | < 5 | –
2 | O=C(O)C1CCCC(Nc2nc(-c3c[nH]c4ncc(Cl)cc34)ncc2F)C1 (centres unmarked) [Compound 696] | < 5 | < 5 | –
3 | CC(C)OC(=O)NC1CCCC(Nc2nc(-c3c[nH]c4ncc(Cl)cc34)ncc2F)C1 (centres unmarked) [Compound 697] | < 5 | < 5 | –
4 | CCCOC(=O)NC1CCCC(Nc2nc(-c3c[nH]c4ncc(Cl)cc34)ncc2F)C1 (centres unmarked) [Compound 698] | < 5 | < 5 | –
5 | CC(C)COC(=O)NC1CCCC(Nc2nc(-c3c[nH]c4ncc(Cl)cc34)ncc2F)C1 (centres unmarked) [Compound 699] | < 5 | < 5 | –
6 | CCOC(=O)NC1CCCC(Nc2nc(-c3c[nH]c4ncc(Cl)cc34)ncc2F)C1 (centres unmarked) [Compound 700] | < 5 | < 5 | –
7 | CC#CCOC(=O)NC1CCCC(Nc2nc(-c3c[nH]c4ncc(Cl)cc34)ncc2F)C1 (centres unmarked) [Compound 701] | < 5 | < 5 | –
8 | C#CCOC(=O)NC1CCCC(Nc2nc(-c3c[nH]c4ncc(Cl)cc34)ncc2F)C1 (centres unmarked) [Compound 702] | < 5 | < 5 | –
9 | COCC(=O)NC1CCCC(Nc2nc(-c3c[nH]c4ncc(F)cc34)ncc2F)C1 (centres unmarked) [Compound 703] | < 5 | < 5 | –
10 | O=C(NC1CCCC(Nc2nc(-c3c[nH]c4ncc(F)cc34)ncc2F)C1)C1CCCCO1 (centres unmarked) [Compound 704] | < 5 | < 5 | –
11 | COC(=O)NC1CCCC(Nc2nc(-c3c[nH]c4ncc(F)cc34)ncc2F)C1 (centres unmarked) [Compound 705] | < 5 | < 5 | –
12 | COCC(=O)NC1CCCC(Nc2nc(-c3c[nH]c4ncc(Cl)cc34)nc(C(C)(C)O)c2F)C1 (centres unmarked) [Compound 715] | < 5 | < 5 | –
13 | COC(=O)NC1CCCC(Nc2nc(-c3c[nH]c4ncc(Cl)cc34)nc(C(C)(C)O)c2F)C1 (centres unmarked) [Compound 716] | < 5 | < 5 | –
14 | OCC(O)C[C@@]1(O)CCCC(Nc2nc(-c3c[nH]c4ncc(Cl)cc34)ncc2F)C1 (some centres unmarked) [Compound 718] | – | – | IC50 [1, 5]: < 5 µM; EC50 [2, 6]: < 5 µM
15 | O=C(NCC1CC1)C1CCCC(Nc2nc(-c3c[nH]c4ncc(Cl)cc34)ncc2F)C1 (centres unmarked) [Compound 719] | < 5 | < 5 | –
16 | COC1CN(C(=O)C2CCCC(Nc3nc(-c4c[nH]c5ncc(Cl)cc45)ncc3F)C2)C1 (centres unmarked) [Compound 720] | < 5 | < 5 | –
17 | CCOC(=O)C(=O)N(C(=O)OC(C)(C)C)C1CC2CC(C(=O)OC)C1C2 (centres unmarked) [Compound 721] | < 5 | < 5 | –
18 | CC(C)(C)C(=O)NC1CCCC(Nc2nc(-c3c[nH]c4ncc(Cl)cc34)ncc2F)C1 (centres unmarked) [Compound 723] | < 5 | < 5 | –
19 | N#CCC(=O)NC1CCCC(Nc2nc(-c3c[nH]c4ncc(Cl)cc34)ncc2F)C1 (centres unmarked) [Compound 724] | < 5 | < 5 | –
20 | CN(C)CC(=O)NC1CCCC(Nc2nc(-c3c[nH]c4ncc(Cl)cc34)ncc2F)C1 (centres unmarked) [Compound 725] | < 5 | < 5 | –
21 | O=C(NC1CCCC(Nc2nc(-c3c[nH]c4ncc(Cl)cc34)ncc2F)C1)C1CCC1 (centres unmarked) [Compound 726] | < 5 | < 5 | –
22 | CC(C)(C)CC(=O)NC1CCCC(Nc2nc(-c3c[nH]c4ncc(Cl)cc34)ncc2F)C1 (centres unmarked) [Compound 728] | < 5 | < 5 | –
23 | O=C(CN1CCCCC1)NC1CCCC(Nc2nc(-c3c[nH]c4ncc(Cl)cc34)ncc2F)C1 (centres unmarked) [Compound 729] | < 5 | < 5 | –

Row | Compound | IC50 [1, 3] [µM] | EC50 [2, 4] [µM] | also measured
24 | O=C(CN1CCOCC1)NC1CCCC(Nc2nc(-c3c[nH]c4ncc(Cl)cc34)ncc2F)C1 (centres unmarked) [Compound 730] | < 5 | < 5 | –
25 | O=C(O)C1CCC(Nc2nc(-c3c[nH]c4ncc(Cl)cc34)ncc2F)CC1 (centres unmarked) [Compound 731] | > 10 | > 3.3 | –
26 | CNC(=O)C[C@]1(O)CCCC(Nc2nc(-c3c[nH]c4ncc(Cl)cc34)ncc2F)C1 (some centres unmarked) [Compound 751] | – | – | IC50 [1, 5]: < 5 µM; EC50 [2, 6]: < 5 µM
27 | CCNC(=O)[C@]1(O)CCC[C@H](Nc2nc(-c3c[nH]c4ncc(Cl)cc34)ncc2F)C1 [Compound 779, (1S,3S)-3-[[2-(5-chloro-1H-pyrrolo[2,3-b]pyridin-3-yl)-5-fluoro-pyrimidin-4-yl]amino]-N-ethyl-1-hydroxy-cyclohexanecarboxamide] | – | – | IC50 [1, 7]: < 5 µM; EC50 [2, 8]: < 5 µM
28 | COCCNC(=O)[C@@H]1CCC[C@H](Nc2nc(-c3c[nH]c4ncc(Cl)cc34)ncc2F)C1 [Compound 789] | – | – | IC50 ([1]; read-out: IC50): < 5 µM; EC50 [2, 9]: < 5 µM
29 | O=c1[nH]c(=O)n([C@@H]2CCC[C@H](Nc3nc(-c4c[nH]c5ncc(Cl)cc45)ncc3F)C2)o1 [Compound 796] | – | – | IC50 ([1]; read-out: IC50): < 5 µM; EC50 [2, 9]: < 5 µM
30 | O=c1[nH]c(=O)n([C@H]2CCC[C@H](Nc3nc(-c4c[nH]c5ncc(Cl)cc45)ncc3F)C2)o1 [Compound 798] | – | – | IC50 ([1]; read-out: IC50): < 5 µM; EC50 [2, 9]: < 5 µM
31 | CCNC(=O)C1CCCC(Nc2nc(-c3c[nH]c4ncc(Cl)cc34)ncc2F)C1O (centres unmarked) [Compound 815, 3-[[2-(5-chloro-1H-pyrrolo[2,3-b]pyridin-3-yl)-5-fluoro-pyrimidin-4-yl]amino]-N-ethyl-2-hydroxy-cyclohexanecarboxamide] | – | – | IC50 [1, 7]: < 5 µM; EC50 [2, 8]: < 5 µM
32 | C[C@@]1(C(=O)O)CCCC(Nc2nc(-c3c[nH]c4ncc(Cl)cc34)ncc2F)C1 (some centres unmarked) [Compound 826] | – | – | IC50 [1, 7]: < 5 µM; EC50 [2, 8]: < 5 µM
33 | CO[C@@H]1CCC[C@H](Nc2nc(-c3c[nH]c4ncc(Cl)cc34)ncc2F)[C@H]1O [Compound 831, (1R,2S,6R)-2-(2-(5-chloro-1H-pyrrolo[2,3-b]pyridin-3-yl)-5-fluoropyrimidin-4-ylamino)-6-methoxycyclohexanol] | – | – | IC50 [1, 7]: < 5 µM; EC50 [2, 8]: < 5 µM
34 | Fc1cnc(-c2c[nH]c3ncc(Cl)cc23)nc1N[C@H]1CCC[C@@H](c2nnn[nH]2)C1 [Compound 855, N-((1S,3R)-3-(1H-tetrazol-5-yl)cyclohexyl)-2-(5-chloro-1H-pyrrolo[2,3-b]pyridin-3-yl)-5-fluoropyrimidin-4-amine] | – | – | IC50 [1, 7]: < 5 µM; EC50 [2, 8]: < 5 µM
35 | CC(=O)NC[C@]1(O)CCC[C@H](Nc2nc(-c3c[nH]c4ncc(Cl)cc34)ncc2F)C1 [Compound 857] | – | – | IC50 [1, 7]: < 5 µM; EC50 [2, 8]: < 5 µM
36 | C[C@@]1(O)CCC[C@H](Nc2nc(-c3c[nH]c4ncc(Cl)cc34)ncc2F)[C@H]1O [Compound 860] | – | – | IC50 ([1]; read-out: IC50): < 5 µM; EC50 [2, 9]: < 5 µM
37 | N#CC1(C(=O)N[C@@H]2CCC[C@H](Nc3nc(-c4c[nH]c5ncc(F)cc45)ncc3F)C2)CC1 [Compound 871] | – | – | IC50 [1, 7]: < 5 µM; EC50 [2, 8]: < 5 µM
38 | N=C(N)N1CCC[C@H](Nc2nc(-c3c[nH]c4ncc(Cl)cc34)ncc2F)C1 [Compound 881] | – | – | IC50 [1, 7]: > 10 µM; EC50 [2, 8]: > 3.3 µM
39 | CS(=O)(=O)C[C@@]1(O)CCC[C@H](Nc2nc(-c3c[nH]c4ncc(Cl)cc34)ncc2F)C1 [Compound 886] | – | – | IC50 ([1]; read-out: IC50): < 5 µM; EC50 ([2]; mean all, replication of A/PR/8/34 influenza virus (bDNA assay), read-out: EC50): < 5 µM
40 | O=C1CCCN1[C@@H]1CCC[C@H](Nc2nc(-c3c[nH]c4ncc(Cl)cc34)ncc2F)C1 [Compound 956] | – | – | IC50 [1, 10]: < 5 µM; EC50 [2, 11]: < 5 µM
41 | CN1CCN([C@@H]2CCCC(Nc3nc(-c4c[nH]c5ncc(Cl)cc45)ncc3F)C2)C1=O (some centres unmarked) [Compound 958] | – | – | IC50 [1, 10]: < 5 µM; EC50 [2, 11]: < 5 µM
42 | O=C1CC2(CCC[C@H](Nc3nc(-c4c[nH]c5ncc(Cl)cc45)ncc3F)C2)CN1 (stereo partly drawn) [Compound 969, (7S)-7-(2-(5-chloro-1H-pyrrolo[2,3-b]pyridin-3-yl)-5-fluoropyrimidin-4-ylamino)-2-azaspiro[4.5]decan-3-one] | – | – | IC50 [1, 10]: < 5 µM; EC50 [2, 11]: < 5 µM
43 | CN1C[C@@]2(CCC[C@H](Nc3nc(-c4c[nH]c5ncc(Cl)cc45)ncc3F)C2)OC1=O [Compound 971, (5S,7S)-7-(2-(5-chloro-1H-pyrrolo[2,3-b]pyridin-3-yl)-5-fluoropyrimidin-4-ylamino)-3-methyl-1-oxa-3-azaspiro[4.5]decan-2-one] | – | – | IC50 [1, 10]: < 5 µM; EC50 [2, 11]: < 5 µM
44 | N#CC[C@]1(O)CCC[C@H](Nc2nc(-c3c[nH]c4ncc(F)cc34)ncc2F)C1 [Compound 979, 2-((1S,3S)-3-(5-fluoro-2-(5-fluoro-1H-pyrrolo[2,3-b]pyridin-3-yl)pyrimidin-4-ylamino)-1-hydroxycyclohexyl)ethanenitrile] | – | – | IC50 [1, 12]: < 5 µM; EC50 [2, 13]: < 5 µM
45 | O[C@H]1[C@H](O)CCCC[C@@H]1Nc1nc(-c2c[nH]c3ncc(F)cc23)ncc1F [Compound 984] | – | – | IC50 [1, 12]: < 5 µM; EC50 [2, 13]: < 5 µM
46 | O=C(O)[C@H]1C2CCC(CC2)[C@@H]1Nc1nc(-c2c[nH]c3ncc(F)cc23)ncc1F [Compound 1070, (2S,3S)-3-((2-(5-fluoro-1H-pyrrolo[2,3-b]pyridin-3-yl)-5-fluoropyrimidin-4-yl)amino)bicyclo[2.2.2]octane-2-carboxylic acid] | – | – | IC50 [1, 12]: < 5 µM; EC50 [2, 13]: < 5 µM
